Activity calls are given as the source filed them.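 Rule for the calls: active = normalized inhibition above 25%; inactive = normalized inhibition below 25%.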
Biological target: Tyrosine-protein phosphatase non-receptor type 22 (Homo sapiens) (UniProt Q9Y2R2)
Test: PTPN22 enzyme inhibition, catalase-containing buffer – biochemical, catalase added, Infinite200, 384-well (AID 1338)
Conditions: Recombinant LYP, DiFMUP fluorescence, with catalase; at 10 µM; stronger effect = higher value

Sequence of Tyrosine-protein phosphatase non-receptor type 22 (Homo sapiens) (Q9Y2R2 whole entry, looked up): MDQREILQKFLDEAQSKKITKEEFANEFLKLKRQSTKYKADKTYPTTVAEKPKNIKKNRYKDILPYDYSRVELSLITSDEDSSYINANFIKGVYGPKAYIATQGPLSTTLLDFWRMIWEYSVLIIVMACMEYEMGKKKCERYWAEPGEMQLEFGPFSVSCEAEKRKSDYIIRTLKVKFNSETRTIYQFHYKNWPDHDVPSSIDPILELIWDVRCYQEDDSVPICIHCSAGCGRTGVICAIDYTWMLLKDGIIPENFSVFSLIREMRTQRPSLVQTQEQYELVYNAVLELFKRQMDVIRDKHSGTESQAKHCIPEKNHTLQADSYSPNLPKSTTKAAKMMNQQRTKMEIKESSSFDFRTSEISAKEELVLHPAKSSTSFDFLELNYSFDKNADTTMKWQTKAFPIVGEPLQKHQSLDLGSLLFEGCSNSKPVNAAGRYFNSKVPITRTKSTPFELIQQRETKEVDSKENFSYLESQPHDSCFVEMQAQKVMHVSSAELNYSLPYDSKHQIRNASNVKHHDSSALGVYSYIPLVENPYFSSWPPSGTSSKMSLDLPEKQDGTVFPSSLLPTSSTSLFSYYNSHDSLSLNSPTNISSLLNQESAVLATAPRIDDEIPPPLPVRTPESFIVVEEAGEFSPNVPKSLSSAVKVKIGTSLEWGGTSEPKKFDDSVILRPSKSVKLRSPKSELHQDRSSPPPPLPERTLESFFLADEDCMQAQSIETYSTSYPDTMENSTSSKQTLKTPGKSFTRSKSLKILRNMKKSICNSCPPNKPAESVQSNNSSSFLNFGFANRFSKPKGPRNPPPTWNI

| Compound | inhibition |
| --- | --- |
| COc1cccc(OC)c1-c1nn2c(-c3cc(-c4ccccc4)n[nH]3)nnc2s1 | 54.4% |
| O=[N+]([O-])c1cc(/C=N\Nc2nccs2)ccc1O | 4% (inactive) |
| O=C(O)CCCN1C(=O)/C(=C/c2ccc(-c3nc4ccccc4s3)o2)SC1=S | 36.5% |
| O=C(O)CCN1C(=O)/C(=C/c2ccc(-c3nc4ccccc4s3)o2)SC1=S | 48.9% |
| Nc1c(C(=O)Nc2nc3ccccc3s2)sc2nc(-c3cccs3)ccc12 | 32.2% |
| Cc1ccc(NC(=O)CN2C(=O)S/C(=C\c3cccn3-c3cccc(C(=O)O)c3)C2=O)c(C)c1 | 48.2% |
| CC(C)C(C(=O)O)N1C(=O)/C(=C/C=C/c2ccco2)SC1=S (stereo unspecified) | 13% (inactive) |
| O=C(c1cccs1)c1no[n+]([O-])c1C(=O)c1cccs1 | 51.5% |
| CC(C(=O)O)N1C(=O)/C(=C/C=C/c2ccco2)SC1=S (stereo unspecified) | 2.7% (inactive) |
| COc1cc(-c2nnc(SCc3cc(=O)oc4cc(O)c(O)cc34)o2)cc(OC)c1OC | 49% |
| Cn1nc(-c2ccc(Cl)cc2)nc2c(=O)n(C)c(=O)nc1-2 | 34.1% |

From PubChem BioAssay AID1338 (Columbia University Molecular Screening Center, 2008)
